Assay results as given in PMC12557383, “Development of a Potent and Functional In Vivo Peptide Competitive Inhibitor for the Toxin MazF” (Journal of Medicinal Chemistry, 2025).
Values joined by “and” are separate entries in the source; they are usually repeats but may differ in a detail not shown here. Equal entries are not always repeated.

B3: MazF_(E24A) (E. coli toxin MazF with glutamic acid 24 replaced with alanine, His6 tag removed) (enzyme)
chain: MVSRYVPDMGDLIWVDFDPTKGSAQAGHRPAVVLSPFMYNNKTGMCLCVPCTTQSKGYPFEVVLSGQERDGVALADQVKSIAWRARGATKKGTVAPEELQLIKAKINVLIG
notes: For NMR the same construct was 15N or 15N/13C labelled; also called the toxin; source: E. coli BL21 (DE3) RIL, purified (Ni-NTA, TEV cleavage, second Ni-NTA, SEC); not shown: His6, N-terminal, cleaved

How the values were obtained:
His^6-MazF = target: T1, His^6-MazF (Escherichia coli, UniProt P0AE70); experiment: His6-MazF enzyme activity with fluorescence-suppressed chimeric DNA/RNA substrate; format: biochemical
T1 construct: made in house
T1 sequence (P0AE70 1-111): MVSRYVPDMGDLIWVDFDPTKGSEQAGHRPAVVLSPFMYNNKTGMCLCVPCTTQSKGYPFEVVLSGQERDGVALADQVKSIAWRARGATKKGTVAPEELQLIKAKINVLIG
Method: Toxin activity was assessed with a chimeric DNA/RNA substrate labeled with a fluorophore on the 5′ end and a quencher on the 3′ end (Tables S1–S13) as described. The reaction was performed in 50 mM Tris, pH 7, containing 1 mM EDTA in a 96-well plate and in a final volume of 100 μL. The buffer was initially equilibrated at 35 °C, and His^6-MazF was added to a final concentration of 0.75 μM. Inhibitors were incubated with His^6-MazF for 20 min/35 °C before the reaction was started with 0.5 μM of substrate. Fluorescence intensity was recorded every half minute for 90 min on a SpectraMax Paradigm spectrometer (Molecular Devices) at 35 °C with an excitation wavelength of 488 nm and detection at 520 nm. The fluorescence values of all reactions were subtracted from that of the negative control containing only buffer and substrate. The highest fluorescence value obtained for the reaction catalyzed by His^6-MazF was set to 1, and the fluorescence values obtained for all other reactions were normalized relative to this.
The mechanism of inhibition of the toxin by SamF was determined by measuring the initial enzyme-catalyzed ACA site hydrolysis rates (v 0) in the absence and presence of increasing concentrations of the inhibitor. The concentration of His^6-MazF was 0.75 μM. V 0 was considered as the slope of the catalytic curve (fluorescence increase per time) at the initial moments of the reaction up to a maximum of 5 min, after the addition of the substrate. The Lineweaver–Burk graph was generated by plotting the reciprocal of v 0 as a function of the reciprocal of the substrate concentration in the presence of different amounts of inhibitor.
The IC50 value for the inhibition of MazF was calculated by measuring the v 0 as described above in the presence of different concentrations of the inhibitor. The concentration of His^6-MazF was 0.75 μM, and that of the substrate was 0.5 μM.

MazFE24A [1] = target: T2, MazFE24A (Escherichia coli, UniProt P0AE70, E24A); experiment: Isothermal titration calorimetry (ITC), binding to MazFE24A; details: peptide into MazFE24A, pH about 7.10, one set of sites model
T2 construct: His6 (N, cleaved yes); made in house; host or cells: E. coli BL21 (DE3) RIL
T2 sequence (P0AE70 1-111 E24A): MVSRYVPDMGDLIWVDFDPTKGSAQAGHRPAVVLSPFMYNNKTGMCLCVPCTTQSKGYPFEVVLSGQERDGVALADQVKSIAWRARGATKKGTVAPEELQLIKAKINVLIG
Method: Experiments were performed in a Malvern VP-ITC microcalorimeter with a reference offset of 15 μcal s^–1, syringe speed of 250 rpm, preinjection delay of 300 s, and a recording interval of 2 s. The thermodynamic parameters of binding were obtained by fitting the experimental thermogram (Origin 7.0 software) to the “one set of sites” model supplied by the equipment after subtracting the heat of dilution. […] Titrations of MazFE24A with SamF were carried out by 20 injections of 15 μL of SamF (225 μM) to a 28 μM MazFE24A solution contained in the calorimetric cell. Samples of MazFE24A and SamF were prepared in the same buffer with a final pH of about 7.10 (30 mM NaHPO4, 4 mM NH4HCO3, 60 mM NaCl, 0.3 mM EDTA, and 2.4 mM DTT).

[2] = CD spectroscopy, α-helix content by K2D2 deconvolution; format: physicochemical; details: 0.25 mg/mL in 10 mM NaHPO4, CD deconvolution with K2D2
Method: CD spectra were recorded in a Jasco 815 spectropolarimeter with a 0.25 mg/mL concentrated sample of SamF in 10 mM NaHPO4 buffer. CD spectra were recorded with 1 nm data pitch, 1 s of integration time, scanning speed of 50 nm/min, and wavelength range from 200 to 260 nm. The final spectrum is the average of eight accumulations. The peptide spectrum was subtracted from that of the buffer and smoothed by the Savitzky-Golay method.

MazFE24A [3] = target: T2, MazFE24A; experiment: Competition ligand binding by displacement ITC (MazE vs SamF); details: 50 μM MazE titrated into 10 μM MazFE24A with 0, 10 or 30 μM SamF
Excerpt: Raw heats were integrated and fitted by a least-squares algorithm to the “one set of sites” model to calculate thermodynamic parameters after subtracting the heat of dilution.

[4] = Solubility of the purified peptide; format: physicochemical
[5] = target: T3, His^6-MazF (wild-type E. coli toxin MazF) (E. coli, UniProt P0AE70 1-111); experiment: cell-based or functional assay
T3 sequence: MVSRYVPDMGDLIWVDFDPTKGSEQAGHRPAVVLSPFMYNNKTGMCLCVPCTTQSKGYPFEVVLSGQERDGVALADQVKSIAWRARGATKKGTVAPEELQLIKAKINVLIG

[6] = target: B3; experiment: ITC; SamF (225 μM) in the syringe, 20 injections of 15 μL into 28 μM MazF_(E24A) in the cell; 30 mM NaHPO4, 4 mM NH4HCO3, 60 mM NaCl, 0.3 mM EDTA, 2.4 mM DTT, pH about 7.10; one set of sites model; average of two independent experiments; details: both partners purified
[7] = target: B3; details: both partners purified
[8] = target: T4, MazF_(E24A) (E. coli toxin MazF with glutamic acid 24 replaced with alanine, His6 tag removed) (E. coli, UniProt P0AE70 1-111, E24A); experiment: ITC
[9] = target: the molecule itself; experiment: SEC-MALS; Superdex 75 10/300 GL in NMR buffer; 100 μL of 200 μM MazF_(E24A) alone or with an equimolar concentration of SamF
[10] = target: T4, MazF_(E24A) (E. coli toxin MazF with …); experiment: ITC; remark: listed apart in the source
[11] = target: T4, MazF_(E24A) (E. coli toxin MazF with …); experiment: ITC; in presence of 10 uM SamF
[12] = target: B3; experiment: ITC; MazE (50 μM) in the syringe, 20 injections of 8 μL into 10 μM MazF_(E24A) in the cell; 50 mM NaHPO4 pH 7, 100 mM NaCl, 0.5 mM EDTA, 4 mM DTT; one set of sites model; details: both partners purified
[13] = target: T4, MazF_(E24A) (E. coli toxin MazF with …); experiment: ITC; in presence of 30 uM SamF
[14] = SamF: average of two independent experiments

Molecule: Ac-SHLFWAQFKEYF-NH2 [SamF_D9K]
- Inhibition of His6-MazF catalysis (result in words) (His^6-MazF; 0.75 μM His6-MazF, 0.5 μM substrate, 50 mM Tris pH 7, 35 °C, 20 min preincubation, fluorescence over 90 min): still able to prevent MazF catalysis
- protein:peptide complex stoichiometry (N) (MazFE24A [1]): 1.0 ±0.1
- TΔS (MazFE24A [1]; [14]): -2.8 ± 0.9 kcal/mol

Molecule: Ac-SHLFWAQFDEYF-NH2 [SamF]
- Mechanism of inhibition (Lineweaver–Burk) (His^6-MazF; 0.75 μM His6-MazF, increasing substrate and inhibitor concentrations, Vmax unaffected, KM enhanced): competitive inhibition
- Inhibition of His6-MazF in whole E. coli cell lysate (result in words) (His^6-MazF; in the presence of about 0.5 μg of E. coli proteins): still efficiently able to inhibit
- α-helix content ([2]; pH 7.0, 25 °C): 82.6%
- α-helix content ([2]; pH 7.6, 25 °C): 39.11%
- α-helix content ([2]; pH 8.0, 25 °C): 23.36%
- TΔS (MazFE24A [1]; [14]): -3.9 kcal/mol and -3.9 ± 1.9 kcal/mol
- ΔH (MazFE24A [1]; [14]): -11.8 ± 1.6 kcal/mol
- Competition with MazE for binding to MazF (result in words) (MazFE24A [3]): compete for binding to MazF
- Solubility at neutral pHs (result in words) ([4]; neutral pH): low solubility
- Solubility at pHs 8–9 (result in words) ([4]; pH 8–9): highly soluble

B1: Small Antitoxin of MazF (SamF), synthetic peptide Ac-SHLFWAQFDEYF-NH2 (peptide)
peptide: Ac-SHLFWAQFDEYF-NH2
notes: also called synthetic SamF; the synthetic peptide; source: synthetic peptide (microwave-assisted solid phase, RP-HPLC purified)
- IC50 of inhibition of His6-MazF (0.75 μM) cleavage of a fluorescence-suppressed DNA–RNA chimeric substrate (0.5 μM) [5]: 2170 nM
- Kd [6]: 2500 ± 700 nM
- dH [6]: -11.8 kcal/mol
- stoichiometry N [6]: 1

B2: SamF D9K mutant peptide (peptide)
peptide: Ac-SHLFWAQFKEYF-NH2
notes: the substitution is still to be applied; source: synthetic peptide
- fold change of KD against SamF [7]: 2 fold
- Kd [8]: 6600 nM

Molecule: B3
- stoichiometry N [9]: 2

B4: MazE (E. coli antitoxin) (natural protein, UniProt P0AE72 1-82, looked up)
chain: MIHSSVKRWGNSPAVRIPATLMQALNLNIDDEVKIDLVDGKLIIEPVRKEPVFTLAELVNDITPENLHENIDWGEPKDKEVW
notes: also called full-length MazE; the antitoxin
- Kd [10]: 5 nM
- Kd [11]: 6 nM
- dH [12]: -25.6 ± 1.7 kcal/mol
- stoichiometry N [12]: 0.5
- Kd [13]: 2 nM
